± gives the expanded uncertainty stated by the source.

This data set can be described thus: activity coefficient (dimensionless); of the first substance listed, at infinite dilution; xn = mol fraction of the nth substance listed. The note with it: Liquid, Chromatography, x1 = 0.

Regarding `C1CCCCC1` [cyclohexane] + CCCCCCn1cc[n+](C)c1.N#C[B-](C#N)(C#N)C#N, the activity coefficient by setting is: (318.15 K) 6.52 ± 0.3; (328.15 K) 6.15 ± 0.28; (338.15 K) 5.85 ± 0.27; (348.15 K) 5.58 ± 0.26; (358.15 K) 5.38 ± 0.25; (368.15 K) 5.21 ± 0.24.
For the molecule `C1=CCCCC1` [cyclohexene] + CCCCCCn1cc[n+](C)c1.N#C[B-](C#N)(C#N)C#N, the activity coefficient by setting is: (318.15 K) 3.48 ± 0.16; (328.15 K) 3.38 ± 0.15; (338.15 K) 3.27 ± 0.15; (348.15 K) 3.25 ± 0.15; (358.15 K) 3.17 ± 0.14; (368.15 K) 3.14 ± 0.14.
On to `C1CCCCCCC1` [cyclooctane] + CCCCCCn1cc[n+](C)c1.N#C[B-](C#N)(C#N)C#N, for which the activity coefficient reads like this: (318.15 K) 9.94 ± 0.46; (328.15 K) 9.29 ± 0.43; (338.15 K) 8.75 ± 0.4; (348.15 K) 8.33 ± 0.38; (358.15 K) 7.9 ± 0.36; (368.15 K) 7.57 ± 0.35.
For `C1CCCC1` [cyclopentane] + CCCCCCn1cc[n+](C)c1.N#C[B-](C#N)(C#N)C#N, the activity coefficient was 4.65 ± 0.21 (318.15 K); 4.45 ± 0.2 (328.15 K); 4.28 ± 0.2 (338.15 K); 4.14 ± 0.19 (348.15 K); 4.02 ± 0.18 (358.15 K); 3.93 ± 0.18 (368.15 K).
With `CCCCCCCCCC` [decane] + CCCCCCn1cc[n+](C)c1.N#C[B-](C#N)(C#N)C#N, the activity coefficient by setting is: (318.15 K) 43.6 ± 2; (328.15 K) 40 ± 1.9; (338.15 K) 36.4 ± 1.7; (348.15 K) 33.8 ± 1.6; (358.15 K) 31.3 ± 1.5; (368.15 K) 29.3 ± 1.4.
In the case of `CCOCC` [diethyl ether] + CCCCCCn1cc[n+](C)c1.N#C[B-](C#N)(C#N)C#N, the activity coefficient (318.15 K) came to 1.59 ± 0.06; the activity coefficient (328.15 K) is 1.62 ± 0.07; the activity coefficient (338.15 K) was 1.64 ± 0.07; the activity coefficient (348.15 K) was 1.68 ± 0.07; the activity coefficient (358.15 K) is 1.71 ± 0.07; the activity coefficient (368.15 K) turned out to be 1.76 ± 0.07.
As for `CC(C)OC(C)C` [diisopropyl ether] + CCCCCCn1cc[n+](C)c1.N#C[B-](C#N)(C#N)C#N, the activity coefficient by setting is: (318.15 K) 3.68 ± 0.17; (328.15 K) 3.71 ± 0.17; (338.15 K) 3.75 ± 0.17; (348.15 K) 3.8 ± 0.17; (358.15 K) 3.82 ± 0.17; (368.15 K) 3.87 ± 0.18.
With `CCCOCCC` [dipropyl ether] + CCCCCCn1cc[n+](C)c1.N#C[B-](C#N)(C#N)C#N, the activity coefficient (318.15 K) is 3.82 ± 0.17; the activity coefficient (328.15 K) was 3.77 ± 0.17; the activity coefficient (338.15 K) was 3.73 ± 0.17; the activity coefficient (348.15 K) was 3.74 ± 0.17; the activity coefficient (358.15 K) was determined as 3.72 ± 0.17; the activity coefficient (368.15 K) amounted to 3.73 ± 0.17.
Take `CCO` [ethanol] + CCCCCCn1cc[n+](C)c1.N#C[B-](C#N)(C#N)C#N: the activity coefficient runs as follows: (318.15 K) 1.05 ± 0.03; (328.15 K) 0.978 ± 0.025; (338.15 K) 0.912 ± 0.026; (348.15 K) 0.855 ± 0.027; (358.15 K) 0.807 ± 0.028; (368.15 K) 0.761 ± 0.029.
As for `CCOC(C)=O` [ethyl acetate] + CCCCCCn1cc[n+](C)c1.N#C[B-](C#N)(C#N)C#N, the activity coefficient (318.15 K) is 0.664 ± 0.03; the activity coefficient (328.15 K) was 0.684 ± 0.03; the activity coefficient (338.15 K) was found to be 0.701 ± 0.029; the activity coefficient (348.15 K) came to 0.715 ± 0.029; the activity coefficient (358.15 K) came to 0.733 ± 0.029; the activity coefficient (368.15 K) is 0.751 ± 0.029.
With `CCc1ccccc1` [ethylbenzene] + CCCCCCn1cc[n+](C)c1.N#C[B-](C#N)(C#N)C#N, the activity coefficient runs as follows: (318.15 K) 1.39 ± 0.05; (328.15 K) 1.41 ± 0.05; (338.15 K) 1.43 ± 0.05; (348.15 K) 1.45 ± 0.05; (358.15 K) 1.47 ± 0.06; (368.15 K) 1.49 ± 0.06.
Take `CCCCCCC` [heptane] + CCCCCCn1cc[n+](C)c1.N#C[B-](C#N)(C#N)C#N: the activity coefficient (318.15 K) stood at 16.5 ± 0.8; the activity coefficient (328.15 K) amounted to 15.4 ± 0.7; the activity coefficient (338.15 K) worked out at 14.5 ± 0.7; the activity coefficient (348.15 K) was 13.7 ± 0.6; the activity coefficient (358.15 K) was found to be 13 ± 0.6; the activity coefficient (368.15 K) worked out at 12.4 ± 0.6.
As for `C=CCCCC` [hex-1-ene] + CCCCCCn1cc[n+](C)c1.N#C[B-](C#N)(C#N)C#N, the activity coefficient stood at 6.13 ± 0.28 (318.15 K); 5.88 ± 0.27 (328.15 K); 5.71 ± 0.26 (338.15 K); 5.58 ± 0.26 (348.15 K); 5.44 ± 0.25 (358.15 K); 5.35 ± 0.24 (368.15 K).
Consider `CCCCCC` [hexane] + CCCCCCn1cc[n+](C)c1.N#C[B-](C#N)(C#N)C#N, for which the activity coefficient came to 11.8 ± 0.5 (318.15 K); 11.2 ± 0.5 (328.15 K); 10.6 ± 0.5 (338.15 K); 10.2 ± 0.5 (348.15 K); 9.79 ± 0.45 (358.15 K); 9.53 ± 0.44 (368.15 K).
In the case of `CO` [methanol] + CCCCCCn1cc[n+](C)c1.N#C[B-](C#N)(C#N)C#N, the activity coefficient is, setting by setting: (318.15 K) 0.837 ± 0.027; (328.15 K) 0.786 ± 0.028; (338.15 K) 0.745 ± 0.029; (348.15 K) 0.704 ± 0.029; (358.15 K) 0.668 ± 0.03; (368.15 K) 0.633 ± 0.031.
Regarding `CCCC(=O)OC` [methyl butanoate] + CCCCCCn1cc[n+](C)c1.N#C[B-](C#N)(C#N)C#N, the activity coefficient reads like this: (318.15 K) 0.664 ± 0.03; (328.15 K) 0.684 ± 0.03; (338.15 K) 0.701 ± 0.029; (348.15 K) 0.715 ± 0.029; (358.15 K) 0.733 ± 0.029; (368.15 K) 0.751 ± 0.029.
With `COC(C)=O` [methyl ethanoate] + CCCCCCn1cc[n+](C)c1.N#C[B-](C#N)(C#N)C#N, the activity coefficient (318.15 K) stood at 0.508 ± 0.032; the activity coefficient (328.15 K) stood at 0.521 ± 0.032; the activity coefficient (338.15 K) was 0.538 ± 0.032; the activity coefficient (348.15 K) came to 0.55 ± 0.032; the activity coefficient (358.15 K) turned out to be 0.566 ± 0.032; the activity coefficient (368.15 K) is 0.586 ± 0.031.
Turning to `CCC(=O)OC` [methyl propanoate] + CCCCCCn1cc[n+](C)c1.N#C[B-](C#N)(C#N)C#N, the activity coefficient is, setting by setting: (318.15 K) 0.609 ± 0.031; (328.15 K) 0.628 ± 0.031; (338.15 K) 0.648 ± 0.03; (348.15 K) 0.668 ± 0.03; (358.15 K) 0.685 ± 0.03; (368.15 K) 0.705 ± 0.029.
Regarding `CC1CCCCC1` [methylcyclohexane] + CCCCCCn1cc[n+](C)c1.N#C[B-](C#N)(C#N)C#N, the activity coefficient was found to be 8.87 ± 0.41 (318.15 K); 8.35 ± 0.38 (328.15 K); 7.87 ± 0.36 (338.15 K); 7.58 ± 0.35 (348.15 K); 7.24 ± 0.33 (358.15 K); 7 ± 0.32 (368.15 K).
As for `CCCCCCCCC` [nonane] + CCCCCCn1cc[n+](C)c1.N#C[B-](C#N)(C#N)C#N, the activity coefficient was determined as 31.4 ± 1.5 (318.15 K); 28.8 ± 1.3 (328.15 K); 26.6 ± 1.2 (338.15 K); 24.9 ± 1.2 (348.15 K); 23.2 ± 1.1 (358.15 K); 21.9 ± 1 (368.15 K).

These data come from the NIST ThermoML archive (doi:10.1016/j.jct.2011.11.025).
